According to patent publication US9458110B2, “Phenylpyrazole derivatives as potent ROCK1 and ROCK2 inhibitors” (BRISTOL-MYERS SQUIBB COMPANY, priority 2013, dated 2016):

How the values were obtained:
ROCK1 = ROCK1 (Homo sapiens (Human), UniProt Q13464); assay: ROCK assay (Caliper LABCHIP peptide phosphorylation), ROCK1; format: biochemical; details: 5 μM ATP, 1.5 μM peptide substrate;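 also: Read-out is separation of phosphorylated from unphosphorylated peptide, with kinase activity inhibition computed at every concentration of a dose-response series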
Sequence of ROCK1 (Q13464 whole entry, species assumed): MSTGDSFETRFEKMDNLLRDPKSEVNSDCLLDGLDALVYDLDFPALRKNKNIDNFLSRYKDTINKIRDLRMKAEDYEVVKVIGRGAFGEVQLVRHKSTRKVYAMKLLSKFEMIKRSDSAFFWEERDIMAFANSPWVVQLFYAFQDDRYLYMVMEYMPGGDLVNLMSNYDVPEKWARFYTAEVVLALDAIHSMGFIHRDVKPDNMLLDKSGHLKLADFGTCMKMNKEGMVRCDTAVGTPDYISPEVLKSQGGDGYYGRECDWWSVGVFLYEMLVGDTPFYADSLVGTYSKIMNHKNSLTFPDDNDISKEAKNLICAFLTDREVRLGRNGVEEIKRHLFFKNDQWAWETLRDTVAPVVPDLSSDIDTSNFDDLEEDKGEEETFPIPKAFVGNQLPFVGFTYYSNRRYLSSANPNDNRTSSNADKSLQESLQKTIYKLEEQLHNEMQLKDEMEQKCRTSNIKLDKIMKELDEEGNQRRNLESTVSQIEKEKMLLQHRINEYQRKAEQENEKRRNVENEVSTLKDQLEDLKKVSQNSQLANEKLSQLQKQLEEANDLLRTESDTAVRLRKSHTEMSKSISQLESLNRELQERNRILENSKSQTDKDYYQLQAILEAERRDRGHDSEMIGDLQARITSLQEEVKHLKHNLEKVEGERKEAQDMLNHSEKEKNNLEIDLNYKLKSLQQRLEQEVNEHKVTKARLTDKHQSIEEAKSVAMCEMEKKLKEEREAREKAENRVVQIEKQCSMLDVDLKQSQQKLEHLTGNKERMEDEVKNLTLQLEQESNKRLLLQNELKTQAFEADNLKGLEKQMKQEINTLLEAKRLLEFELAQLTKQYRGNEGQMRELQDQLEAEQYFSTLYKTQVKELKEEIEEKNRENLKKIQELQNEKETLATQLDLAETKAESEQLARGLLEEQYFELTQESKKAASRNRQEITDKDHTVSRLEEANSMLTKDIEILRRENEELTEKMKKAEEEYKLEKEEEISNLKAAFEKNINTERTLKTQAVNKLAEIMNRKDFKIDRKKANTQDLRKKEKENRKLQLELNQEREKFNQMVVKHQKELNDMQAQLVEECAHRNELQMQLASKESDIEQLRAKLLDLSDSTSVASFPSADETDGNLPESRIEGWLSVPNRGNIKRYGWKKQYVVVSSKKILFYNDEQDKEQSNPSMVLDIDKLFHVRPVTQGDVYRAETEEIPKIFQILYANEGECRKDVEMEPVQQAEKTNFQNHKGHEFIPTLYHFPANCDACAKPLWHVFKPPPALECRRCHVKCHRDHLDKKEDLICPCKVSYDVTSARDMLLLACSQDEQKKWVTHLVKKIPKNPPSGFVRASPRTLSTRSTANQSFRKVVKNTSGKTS

ROCK2 = ROCK2 (Homo sapiens (Human), UniProt O75116); assay: ROCK assay (Caliper LABCHIP peptide phosphorylation), ROCK2; format: biochemical; details: 5 μM ATP, 1.5 μM peptide substrate;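 also: reaction stopped with EDTA, then phosphorylated and unphosphorylated peptide resolved by microfluidic electrophoresis, kinase inhibition computed at each compound concentration in dose-response series, DMSO under 2%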
Sequence of ROCK2 (O75116 whole entry, species assumed): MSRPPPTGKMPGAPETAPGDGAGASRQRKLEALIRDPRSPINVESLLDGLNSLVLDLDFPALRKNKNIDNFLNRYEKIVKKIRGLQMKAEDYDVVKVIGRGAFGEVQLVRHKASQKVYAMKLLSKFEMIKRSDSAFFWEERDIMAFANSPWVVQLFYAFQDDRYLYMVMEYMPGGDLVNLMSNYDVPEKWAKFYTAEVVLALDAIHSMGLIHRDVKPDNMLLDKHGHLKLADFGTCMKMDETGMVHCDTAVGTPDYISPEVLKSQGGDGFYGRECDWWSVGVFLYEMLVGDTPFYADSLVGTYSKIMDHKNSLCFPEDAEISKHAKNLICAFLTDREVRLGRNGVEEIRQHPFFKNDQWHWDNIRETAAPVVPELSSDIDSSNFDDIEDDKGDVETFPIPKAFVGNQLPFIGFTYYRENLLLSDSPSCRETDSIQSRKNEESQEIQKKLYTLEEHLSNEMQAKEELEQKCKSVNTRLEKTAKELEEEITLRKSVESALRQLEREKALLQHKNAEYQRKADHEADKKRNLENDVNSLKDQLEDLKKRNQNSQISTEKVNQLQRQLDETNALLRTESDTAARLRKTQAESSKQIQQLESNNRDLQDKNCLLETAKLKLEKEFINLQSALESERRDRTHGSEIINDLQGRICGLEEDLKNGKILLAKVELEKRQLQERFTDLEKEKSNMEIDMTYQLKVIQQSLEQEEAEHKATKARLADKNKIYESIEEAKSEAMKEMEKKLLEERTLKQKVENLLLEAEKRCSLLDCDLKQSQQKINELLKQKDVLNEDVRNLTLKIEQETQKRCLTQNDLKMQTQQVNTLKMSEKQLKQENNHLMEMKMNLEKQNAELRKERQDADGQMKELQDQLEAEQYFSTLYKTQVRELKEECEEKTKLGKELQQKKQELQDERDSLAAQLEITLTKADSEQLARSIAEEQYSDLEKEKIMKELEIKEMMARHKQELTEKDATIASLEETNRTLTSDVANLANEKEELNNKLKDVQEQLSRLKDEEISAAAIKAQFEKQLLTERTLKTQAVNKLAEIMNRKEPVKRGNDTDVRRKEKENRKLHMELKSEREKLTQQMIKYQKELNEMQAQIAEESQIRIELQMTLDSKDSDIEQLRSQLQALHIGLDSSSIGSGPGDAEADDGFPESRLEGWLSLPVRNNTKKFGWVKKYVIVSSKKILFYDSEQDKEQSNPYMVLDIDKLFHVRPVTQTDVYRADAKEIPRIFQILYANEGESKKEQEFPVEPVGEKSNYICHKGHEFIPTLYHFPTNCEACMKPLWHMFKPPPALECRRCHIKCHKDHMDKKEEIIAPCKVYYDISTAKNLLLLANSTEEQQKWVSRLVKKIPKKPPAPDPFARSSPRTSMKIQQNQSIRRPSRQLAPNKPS

| Structure (SMILES) | IC50 (ROCK1) [nM] | IC50 (ROCK2) [nM] |
| --- | --- | --- |
| COc1cc(C(=O)NCc2c(F)ccc(F)c2F)ccc1-c1cn[nH]c1 [Example 97, 3-methoxy-4-(1H-pyrazol-4-yl)-N-[(2,3,6-trifluorophenyl)methyl] benzamide] | 22.9 | 2.46 |
| COC(=O)c1cccc(CNC(=O)c2ccc(-c3cn[nH]c3)c(OC)c2)c1 [Example 8, methyl 3-((3-methoxy-4-(1H-pyrazol-4-yl)benzamido)methyl)benzoate] | – | 0.85 |
| COc1cc(C(=O)N[C@@H](C)[C@H](O)c2ccccc2)ccc1-c1cn[nH]c1 [Example 40, N-((1R,2S)-1-hydroxy-1-phenylpropan-2-yl)-3-methoxy-4-(1H-pyrazol-4-yl)benzamide] | 337 | 224 |
| COc1cc(C(=O)NCc2ccccc2O)ccc1-c1cn[nH]c1 [Example 31, N-(2-hydroxybenzyl)-3-methoxy-4-(1H-pyrazol-4-yl)benzamide] | 9.2 | 5.62 |
| C[C@@H](NC(=O)c1ccc(-c2cn[nH]c2)c(CO)c1)c1ccc(F)cc1 [Example 271, N-[(1R)-1-(4-Fluorophenyl)ethyl]-3-(hydroxymethyl)-4-(1H-pyrazol-4-yl)benzamide] | 3450 | 75 |
| COc1cc(C(=O)N[C@H](C)c2ccc3ccccc3c2)ccc1-c1cn[nH]c1 [Example 74, (R)-3-methoxy-N-(1-(naphthalen-2-yl)ethyl)-4-(1H-pyrazol-4-yl)benzamide] | 36.3 | 9.18 |
| COc1cc(C(=O)NCc2cccc(C(=O)O)c2)ccc1-c1cn[nH]c1 [Example 64, 3-((3-Methoxy-4-(1H-pyrazol-4-yl)benzamido)methyl)benzoic acid] | 7.7 | 1.2 |
| COc1cc(C(=O)NCc2ccccc2OC(F)(F)F)ccc1-c1cn[nH]c1 [Example 22, 3-methoxy-4-(1H-pyrazol-4-yl)-N-(2-(trifluoro-methoxy)benzyl) benzamide] | 85.8 | 60.2 |
| COc1cc(C(=O)N[C@H]2C[C@@H]2c2ccccc2)ccc1-c1cn[nH]c1 (racemic) [Example 68, (+/−)-3-methoxy-N-(trans-2-phenyl-cyclopropyl)-4-(1H-pyrazol-4-yl)benzamide] | 30.1 | 8.52 |
| COc1cc(C(=O)NCc2cccc(OC(F)(F)F)c2)ccc1-c1cn[nH]c1 [Example 28, 3-methoxy-4-(1H-pyrazol-4-yl)-N-(3-(trifluoro-methoxy)benzyl) benzamide] | 1710 | 40.9 |
| COc1cc(C(=O)NC2(c3ccccc3Cl)CC2)ccc1-c1cn[nH]c1 [Example 2, N-(1-(2-chlorophenyl)cyclopropyl)-3-methoxy-4-(1H-pyrazol-4-yl)benzamide] | 13.9 | 4.73 |
| COc1cc(C(=O)NC(CN2CCOCC2)c2ccccc2)ccc1-c1cn[nH]c1 (stereo not drawn) [Example 10, 3-methoxy-N-(2-morpholino-1-phenylethyl)-4-(1H-pyrazol-4-yl)benzamide] | 107 | 44.5 |
| COc1cc(C(=O)N[C@H](C)c2ccccc2)ccc1-c1cn[nH]c1 [Example 72, (R)-3-methoxy-N-(1-phenylethyl)-4-(1H-pyrazol-4-yl)benzamide] | 5.91 | 1.48 |
| COc1cc(C(=O)NCc2cc(F)cc(F)c2F)ccc1-c1cn[nH]c1 [Example 91, 3-methoxy-4-(1H-pyrazol-4-yl)-N-[(2,3,5-trifluorophenyl)methyl] benzamide] | 38.5 | 7.66 |
| COc1cc(C(=O)NCc2c(F)cccc2F)ccc1-c1cn[nH]c1 [Example 98, N-[(2,6-difluorophenyl)methyl]-3-methoxy-4-(1H-pyrazol-4-yl)benzamide] | 17.8 | 2.95 |
| COc1cc(C(=O)NCc2cccc(O)c2)ccc1-c1cn[nH]c1 [Example 6, N-(3-hydroxybenzyl)-3-methoxy-4-(1H-pyrazol-4-yl)benzamide] | – | 0.85 |
| CNC(=O)c1cccc(CNC(=O)c2ccc(-c3cn[nH]c3)c(OC)c2)c1 [Example 65, 3-Methoxy-N-(3-(methylcarbamoyl)benzyl)-4-(1H-pyrazol-4-yl)benzamide] | – | 0.85 |
| COc1cc(C(=O)NC(CNC(=O)OC(C)(C)C)c2ccccc2)ccc1-c1cn[nH]c1 (stereo not drawn) [Example 11, tert-butyl (2-(3-methoxy-4-(1H-pyrazol-4-yl)benzamido)-2-phenylethyl) carbamate] | 108 | – |

Now from value to compound:

| IC50 (ROCK1) [nM] | IC50 (ROCK2) [nM] | Structure (SMILES) |
| --- | --- | --- |
| 3.24 | 0.46 | COc1cc(C(=O)NCc2cccc(C(=O)NCC(C)(C)O)c2)ccc1-c1cn[nH]c1 [Example 234, N-({3-[(2-hydroxy-2-methylpropyl)carbamoyl]phenyl}methyl)-3-methoxy-4-(1H-pyrazol-4-yl)benzamide] |
| 0.39 | 0.33 | COc1cc(C(=O)NCc2cccc(C(=O)Nc3nc4c(s3)CN(C)CC4)c2)ccc1-c1cn[nH]c1 [Example 247, 3-methoxy-N-{[3-({5-methyl-4H, 5H,6H,7H-[1,3]thiazolo [5,4-c]pyridin-2-yl}carbamoyl)phenyl]methyl}-4-(1H-pyrazol-4-yl)benzamide] |
| 839 | 667 | COc1cc(C(=O)N(Cc2ccccc2F)CC(C)(C)O)ccc1-c1cn[nH]c1 [Example 298, N-(2-Fluorobenzyl)-N-(2-hydroxy-2-methylpropyl)-3-methoxy-4-(1H-pyrazol-4-yl)benzamide] |
| 26.3 | 6.48 | COc1cc(-c2cn[nH]c2)ccc1C(=O)NCc1c(F)cccc1Cl [Example 185, N-[(2-chloro-6-fluorophenyl)methyl]-2-methoxy-4-(1H-pyrazol-4-yl)benzamide] |
| 166 | 78.1 | COc1cc(C(=O)NCCc2ccc(C(F)(F)F)cc2)ccc1-c1cn[nH]c1 [Example 121, 3-methoxy-4-(1H-pyrazol-4-yl)-N-{2-[4-(trifluoro-methyl)phenyl]ethyl} benzamide] |
| 12.5 | 5.7 | COc1cc(C(=O)N[C@H](CO)Cc2ccccc2)ccc1-c1cn[nH]c1 [Example 128, N-[(2S)-1-hydroxy-3-phenylpropan-2-yl]-3-methoxy-4-(1H-pyrazol-4-yl)benzamide] |
| 21.5 | 7 | COc1cc(C(=O)NCCc2cccc(O)c2)ccc1-c1cn[nH]c1 [Example 124, N-[2-(3-hydroxyphenyl)ethyl]-3-methoxy-4-(1H-pyrazol-4-yl)benzamide] |
| 108 | 77.1 | CC(NC(=O)c1ccc(-c2cn[nH]c2)c(C(F)F)c1)c1ccccc1F (single isomer, unassigned) [Example 300, 3-(Difluoromethyl)-N-(1-(2-fluorophenyl)ethyl)-4-(1H-pyrazol-4-yl)benzamide] |
| > 2000 | 1480 | CCC(O)c1cc(C(=O)N[C@H](C)c2ccccc2)ccc1-c1cn[nH]c1 (stereo partly drawn) [Example 285, 3-(1-hydroxypropyl)-N-[(1R)-1-phenylethyl]-4-(1H-pyrazol-4-yl)benzamide] |
| 35.8 | – | COc1cc(C(=O)NC(C)Cc2ccc(F)cc2)ccc1-c1cn[nH]c1 (stereo not drawn) [Example 111, N-[1-(4-fluorophenyl)propan-2-yl]-3-methoxy-4-(1H-pyrazol-4-yl)benzamide] |
| 12.5 | 3.05 | COc1ccc(F)c(C(C)NC(=O)c2ccc(-c3cn[nH]c3)cc2OC)c1 (stereo not drawn) [Example 228, N-[1-(2-fluoro-5-methoxyphenyl)ethyl]-2-methoxy-4-(1H-pyrazol-4-yl)benzamide] |
| 37.3 | 7.32 | COc1cc(-c2cn[nH]c2)ccc1C(=O)NC(c1ccccc1F)C(C)(C)O (stereo not drawn) [Example 212, N-[1-(2-fluorophenyl)-2-hydroxy-2-methylpropyl]-2-methoxy-4-(1H-pyrazol-4-yl)benzamide] |
| 85.1 | 52.8 | CC(C)(O)COc1cc(C(=O)N[C@H](CN)c2ccccc2)ccc1-c1cn[nH]c1 [Example 257, N-[(15)-2-amino-1-phenylethyl]-3-(2-hydroxy-2-methylpropoxy)-4-(1H-pyrazol-4-yl)benzamide] |
| 51.5 | 11 | COc1cc(C(=O)N[C@@H](Cc2ccccc2)[C@H](O)CO)ccc1-c1cn[nH]c1 [Example 216, N-[(2S,3S)-3,4-dihydroxy-1-phenylbutan-2-yl]-3-methoxy-4-(1H-pyrazol-4-yl)benzamide] |
| 11.7 | 3.59 | COc1cc(C(=O)NCc2c(F)cccc2Cl)ccc1-c1cn[nH]c1 [Example 105, N-[(2-chloro-6-fluorophenyl)methyl]-3-methoxy-4-(1H-pyrazol-4-yl)benzamide] |
| 37.1 | 16.7 | COc1cc(-c2cn[nH]c2)c(F)cc1C(=O)N[C@H](C)c1ccccc1 [Example 190, 5-fluoro-2-methoxy-N-[(1R)-1-phenylethyl]-4-(1H-pyrazol-4-yl)benzamide] |
| 1.04 | 0.36 | COc1cc(C(=O)NC(CN)Cc2ccccc2)ccc1-c1cn[nH]c1 (stereo not drawn) [Example 232, N-(1-amino-3-phenylpropan-2-yl)-3-methoxy-4-(1H-pyrazol-4-yl)benzamide] |
| 11.2 | 1.86 | COc1cc(-c2cn[nH]c2)ccc1C(=O)NCc1cccc(S(N)(=O)=O)c1 [Example 230, 2-methoxy-4-(1H-pyrazol-4-yl)-N-[(3-sulfamoyl-phenyl)methyl] benzamide] |
| 13.9 | 2.61 | COC(=O)c1cccc(CNC(=O)c2ccc(-c3cn[nH]c3)c(C)c2)c1 [Example 108, methyl 3-({[3-methyl-4-(1H-pyrazol-4-yl)phenyl] formamido}methyl) benzoate] |
| 111 | 27.8 | CC(O)c1cc(C(=O)NC(C)c2c(F)cccc2F)ccc1-c1cn[nH]c1 (stereo not drawn) [Example 287, N-[1-(2,6-difluorophenyl)ethyl]-3-(1-hydroxyethyl)-4-(1H-pyrazol-4-yl)benzamide] |
| – | 675 | C[C@@H](NC(=O)c1cc(F)c(-c2cn[nH]c2)cc1OCCN(C)C)c1ccccc1 [Example 310, 2-[2-(dimethylamino)ethoxy]-5-fluoro-N-[(1R)-1-phenylethyl]-4-(1H-pyrazol-4-yl)benzamide] |
